Measurements reported in ChEMBL document CHEMBL3885881, “DrugMatrix”.

Species on record: Rattus norvegicus
Experiment: DrugMatrix - Regimen: Daily Repeat
Type: toxicity, organism-based, Sprague-Dawley
Design: regimen Daily Repeat, gender Male, age 6-8 weeks
Details: in vivo, po, route oral GAVAGE, vehicle .5 % CMC; for ABSOLUTE BASOPHIL / ABSOLUTE EOSINOPHIL / ABSOLUTE LYMPHOCYTE / ABSOLUTE MONOCYTE / ABSOLUTE SEGMENTED NEUTROPHIL / BASOPHIL / EOSINOPHIL / ERYTHROCYTE COUNT / HEMATOCRIT / HEMOGLOBIN / LEUKOCYTE COUNT / LYMPHOCYTE / MEAN CORPUSCULAR HEMOGLOBIN / MEAN CORPUSCULAR HEMOGLOBIN CONCENTRATION / MEAN CORPUSCULAR VOLUME / MONOCYTE / NEUTROPHIL / NUCLEATED RED BLOOD CELLS / PLATELET COUNT: tissue Blood; for ALANINE AMINOTRANSFERASE / ALBUMIN / ALKALINE PHOSPHATASE / ASPARTATE AMINOTRANSFERASE / BLOOD UREA NITROGEN / CARBON DIOXIDE / CHLORIDE / CHOLESTEROL / CREATINE PHOSPHOKINASE / CREATININE / GLUCOSE / LACTATE DEHYDROGENASE / LIPASE / PHOSPHORUS / POTASSIUM / SODIUM / TOTAL BILIRUBIN / TOTAL PROTEIN / URIC ACID: tissue Plasma
[1] = 0 mg/kg, 72 h, dose level Control, time 3 day
[2] = 0 mg/kg, 120 h, dose level Control, time 5 day
[3] = 2000 mg/kg, 72 h, dose level High, time 3 day

O=C1Nc2ccc(Cl)cc2C(c2ccccc2Cl)=NC1O (centres undefined) [LORAZEPAM]
ABSOLUTE BASOPHIL [1]: 0 CELLS/uL | ABSOLUTE EOSINOPHIL [1]: 171.33 CELLS/uL | ABSOLUTE LYMPHOCYTE [1]: 13776.5 CELLS/uL | ABSOLUTE MONOCYTE [1]: 180.83 CELLS/uL | ABSOLUTE SEGMENTED NEUTROPHIL [1]: 1121.33 CELLS/uL | BASOPHIL [1]: 0% | EOSINOPHIL [1]: 1% | ERYTHROCYTE COUNT [1]: 5.56 x10E6/uL | HEMATOCRIT [1]: 34.75% | HEMOGLOBIN [1]: 13.68 G/DL | LEUKOCYTE COUNT [1]: 15.25 x10E3/uL | LYMPHOCYTE [1]: 90.17% | MEAN CORPUSCULAR HEMOGLOBIN [1]: 24.6 pg | MEAN CORPUSCULAR HEMOGLOBIN CONCENTRATION [1]: 39.4 G/DL | MEAN CORPUSCULAR VOLUME [1]: 62.48 fL | MONOCYTE [1]: 1.17% | NEUTROPHIL [1]: 7.67% | NUCLEATED RED BLOOD CELLS [1]: 0 /100WBC | PLATELET COUNT [1]: 1342 x10E3/uL | ALANINE AMINOTRANSFERASE [1]: 49.67 u/L | ALBUMIN [1]: 4.15 G/DL | ALKALINE PHOSPHATASE [1]: 346.83 u/L | ASPARTATE AMINOTRANSFERASE [1]: 108.17 u/L | BLOOD UREA NITROGEN [1]: 17.33 mg/dL | CARBON DIOXIDE [1]: 25 mmol/L | CHLORIDE [1]: 100.83 MEQ/L | CHOLESTEROL [1]: 66.83 mg/dL | CREATINE PHOSPHOKINASE [1]: 788 u/L | CREATININE [1]: 0.18 mg/dL | GLUCOSE [1]: 151.67 mg/dL | LACTATE DEHYDROGENASE [1]: 982.5 u/L | LIPASE [1]: 10.33 u/L | PHOSPHORUS [1]: 11.23 mg/dL | POTASSIUM [1]: 6.37 MEQ/L | SODIUM [1]: 141.02 MEQ/L | TOTAL BILIRUBIN [1]: 0.18 mg/dL | TOTAL PROTEIN [1]: 5.9 G/DL | URIC ACID [1]: 1.8 mg/dL | ABSOLUTE BASOPHIL [2]: 0 CELLS/uL | ABSOLUTE EOSINOPHIL [2]: 69 CELLS/uL | ABSOLUTE LYMPHOCYTE [2]: 13632.83 CELLS/uL | ABSOLUTE MONOCYTE [2]: 139.83 CELLS/uL | ABSOLUTE SEGMENTED NEUTROPHIL [2]: 1225 CELLS/uL | BASOPHIL [2]: 0% | EOSINOPHIL [2]: 0.33% | ERYTHROCYTE COUNT [2]: 5.52 x10E6/uL | HEMATOCRIT [2]: 33.98% | HEMOGLOBIN [2]: 13.22 G/DL | LEUKOCYTE COUNT [2]: 15.07 x10E3/uL | LYMPHOCYTE [2]: 90.83% | MEAN CORPUSCULAR HEMOGLOBIN [2]: 23.95 pg | MEAN CORPUSCULAR HEMOGLOBIN CONCENTRATION [2]: 38.9 G/DL | MEAN CORPUSCULAR VOLUME [2]: 61.53 fL | MONOCYTE [2]: 0.83% | NEUTROPHIL [2]: 8% | NUCLEATED RED BLOOD CELLS [2]: 0 /100WBC | PLATELET COUNT [2]: 1196 x10E3/uL | ALANINE AMINOTRANSFERASE [2]: 49.17 u/L | ALBUMIN [2]: 4.2 G/DL | ALKALINE PHOSPHATASE [2]: 352.33 u/L | ASPARTATE AMINOTRANSFERASE [2]: 89.67 u/L | BLOOD UREA NITROGEN [2]: 18 mg/dL | CARBON DIOXIDE [2]: 27.67 mmol/L | CHLORIDE [2]: 101 MEQ/L | CHOLESTEROL [2]: 72.83 mg/dL | CREATINE PHOSPHOKINASE [2]: 417.5 u/L | CREATININE [2]: 0.18 mg/dL | GLUCOSE [2]: 150.5 mg/dL | LACTATE DEHYDROGENASE [2]: 517.33 u/L | LIPASE [2]: 9 u/L | PHOSPHORUS [2]: 11.87 mg/dL | POTASSIUM [2]: 6.57 MEQ/L | SODIUM [2]: 143.62 MEQ/L | TOTAL BILIRUBIN [2]: 0.2 mg/dL | TOTAL PROTEIN [2]: 6.08 G/DL | URIC ACID [2]: 1.45 mg/dL | ABSOLUTE BASOPHIL [3]: 0 CELLS/uL | ABSOLUTE EOSINOPHIL [3]: 93.33 CELLS/uL | ABSOLUTE LYMPHOCYTE [3]: 11320 CELLS/uL | ABSOLUTE MONOCYTE [3]: 259.33 CELLS/uL | ABSOLUTE SEGMENTED NEUTROPHIL [3]: 1294 CELLS/uL | BASOPHIL [3]: 0% | EOSINOPHIL [3]: 0.67% | ERYTHROCYTE COUNT [3]: 6.11 x10E6/uL | HEMATOCRIT [3]: 38.6% | HEMOGLOBIN [3]: 15.07 G/DL | LEUKOCYTE COUNT [3]: 12.97 x10E3/uL | LYMPHOCYTE [3]: 87.33% | MEAN CORPUSCULAR HEMOGLOBIN [3]: 24.63 pg | MEAN CORPUSCULAR HEMOGLOBIN CONCENTRATION [3]: 39.03 G/DL | MEAN CORPUSCULAR VOLUME [3]: 63.1 fL | MONOCYTE [3]: 2% | NEUTROPHIL [3]: 10% | NUCLEATED RED BLOOD CELLS [3]: 0 /100WBC | PLATELET COUNT [3]: 1214.33 x10E3/uL | ALANINE AMINOTRANSFERASE [3]: 72.67 u/L | ALBUMIN [3]: 4.4 G/DL | ALKALINE PHOSPHATASE [3]: 338 u/L | ASPARTATE AMINOTRANSFERASE [3]: 105.33 u/L | BLOOD UREA NITROGEN [3]: 24 mg/dL | CARBON DIOXIDE [3]: 21.33 mmol/L | CHLORIDE [3]: 99.33 MEQ/L | CHOLESTEROL [3]: 119.67 mg/dL | CREATINE PHOSPHOKINASE [3]: 966.67 u/L | CREATININE [3]: 0.22 mg/dL | GLUCOSE [3]: 161.67 mg/dL | LACTATE DEHYDROGENASE [3]: 346.33 u/L | LIPASE [3]: 16.67 u/L | PHOSPHORUS [3]: 10.23 mg/dL | POTASSIUM [3]: 5.79 MEQ/L | SODIUM [3]: 140.87 MEQ/L | TOTAL BILIRUBIN [3]: 0.27 mg/dL | TOTAL PROTEIN [3]: 6.23 G/DL | URIC ACID [3]: 1.5 mg/dL
